System: MRSA clinical isolates
Test: Antibiotic susceptibility profile of MRSA clinical isolates (EUCAST breakpoints)
Assay type: cell-based, Staphylococcus aureus
Excerpt: Clinical MRSA isolates with multidrug resistance were obtained from the collection of the Research Institute of Antimicrobial Chemotherapy, Smolensk State Medical Academy.

## Cn1nnc(-c2ccc(-c3ccc(N4C[C@H](CO)OC4=O)cc3F)cn2)n1 [Tedizolid]
MRSA strain 6
  Drug sensibility profile: S
MRSA strain 7
  Drug sensibility profile: S
MRSA strain 8
  Drug sensibility profile: S
MRSA strain 9
  Drug sensibility profile: S
MRSA strain 10
  Drug sensibility profile: S
MRSA strain 12
  Drug sensibility profile: S
MRSA strain 13
  Drug sensibility profile: S
MRSA strain 14
  Drug sensibility profile: S
MRSA strain 15
  Drug sensibility profile: S
MRSA strain 16
  Drug sensibility profile: S
MRSA strain 17
  Drug sensibility profile: S
MRSA strain 18
  Drug sensibility profile: S
MRSA strain 21
  Drug sensibility profile: S
MRSA strain 23
  Drug sensibility profile: S
MRSA strain 24
  Drug sensibility profile: S
MRSA strain 25
  Drug sensibility profile: S
MRSA strain 26
  Drug sensibility profile: S
MRSA strain 27
  Drug sensibility profile: S
MRSA strain 28
  Drug sensibility profile: S
MRSA strain 29
  Drug sensibility profile: S
MRSA strain 36
  Drug sensibility profile: S
MRSA strain 41
  Drug sensibility profile: S
MRSA strain 42
  Drug sensibility profile: S
MRSA strain 44
  Drug sensibility profile: S
MRSA strain 45
  Drug sensibility profile: S
MRSA strain 51
  Drug sensibility profile: S

## Cc1cc(NS(=O)(=O)c2ccc(N)cc2)no1 [SUL, sulfamethoxazole]
MRSA strain 1
  Drug sensibility profile: R
MRSA strain 2
  Drug sensibility profile: S
MRSA strain 3
  Drug sensibility profile: S
MRSA strain 4
  Drug sensibility profile: S
MRSA strain 5
  Drug sensibility profile: S
MRSA strain 6
  Drug sensibility profile: S
MRSA strain 7
  Drug sensibility profile: S
MRSA strain 8
  Drug sensibility profile: S
MRSA strain 9
  Drug sensibility profile: S
MRSA strain 10
  Drug sensibility profile: S
MRSA strain 12
  Drug sensibility profile: S
MRSA strain 13
  Drug sensibility profile: S
MRSA strain 14
  Drug sensibility profile: S
MRSA strain 15
  Drug sensibility profile: S
MRSA strain 16
  Drug sensibility profile: S
MRSA strain 17
  Drug sensibility profile: I
MRSA strain 18
  Drug sensibility profile: S
MRSA strain 21
  Drug sensibility profile: S
MRSA strain 23
  Drug sensibility profile: S
MRSA strain 24
  Drug sensibility profile: S
MRSA strain 25
  Drug sensibility profile: S
MRSA strain 26
  Drug sensibility profile: S S S S S S S
MRSA strain 27
  Drug sensibility profile: S
MRSA strain 28
  Drug sensibility profile: S
MRSA strain 29
  Drug sensibility profile: S
MRSA strain 30
  Drug sensibility profile: S
MRSA strain 31
  Drug sensibility profile: S
MRSA strain 34
  Drug sensibility profile: S
MRSA strain 35
  Drug sensibility profile: S
MRSA strain 36
  Drug sensibility profile: S S S S S S S
MRSA strain 40
  Drug sensibility profile: S
MRSA strain 41
  Drug sensibility profile: S
MRSA strain 42
  Drug sensibility profile: S
MRSA strain 43
  Drug sensibility profile: S
MRSA strain 44
  Drug sensibility profile: S
MRSA strain 45
  Drug sensibility profile: S
MRSA strain 46
  Drug sensibility profile: S
MRSA strain 48
  Drug sensibility profile: S
MRSA strain 49
  Drug sensibility profile: S
MRSA strain 50
  Drug sensibility profile: S
MRSA strain 51
  Drug sensibility profile: S

## CN(C)c1cc(NC(=O)CNC(C)(C)C)c(O)c2c1C[C@H]1C[C@H]3[C@H](N(C)C)C(O)=C(C(N)=O)C(=O)[C@@]3(O)C(O)=C1C2=O [Tigecycline]
MRSA strain 1
  Drug sensibility profile: S
MRSA strain 2
  Drug sensibility profile: R
MRSA strain 3
  Drug sensibility profile: S
MRSA strain 4
  Drug sensibility profile: S
MRSA strain 5
  Drug sensibility profile: S
MRSA strain 6
  Drug sensibility profile: S
MRSA strain 7
  Drug sensibility profile: S
MRSA strain 8
  Drug sensibility profile: R
MRSA strain 9
  Drug sensibility profile: R
MRSA strain 10
  Drug sensibility profile: S
MRSA strain 12
  Drug sensibility profile: R
MRSA strain 13
  Drug sensibility profile: R
MRSA strain 14
  Drug sensibility profile: S
MRSA strain 15
  Drug sensibility profile: S
MRSA strain 16
  Drug sensibility profile: S
MRSA strain 17
  Drug sensibility profile: R
MRSA strain 18
  Drug sensibility profile: S
MRSA strain 21
  Drug sensibility profile: S
MRSA strain 23
  Drug sensibility profile: S
MRSA strain 24
  Drug sensibility profile: S
MRSA strain 25
  Drug sensibility profile: S
MRSA strain 26
  Drug sensibility profile: S
MRSA strain 27
  Drug sensibility profile: S
MRSA strain 28
  Drug sensibility profile: S
MRSA strain 29
  Drug sensibility profile: S
MRSA strain 30
  Drug sensibility profile: S
MRSA strain 31
  Drug sensibility profile: S
MRSA strain 34
  Drug sensibility profile: S
MRSA strain 35
  Drug sensibility profile: S
MRSA strain 36
  Drug sensibility profile: S
MRSA strain 40
  Drug sensibility profile: S
MRSA strain 41
  Drug sensibility profile: S
MRSA strain 42
  Drug sensibility profile: S
MRSA strain 43
  Drug sensibility profile: S
MRSA strain 44
  Drug sensibility profile: S
MRSA strain 45
  Drug sensibility profile: S
MRSA strain 46
  Drug sensibility profile: S
MRSA strain 48
  Drug sensibility profile: S
MRSA strain 49
  Drug sensibility profile: S
MRSA strain 50
  Drug sensibility profile: S
MRSA strain 51
  Drug sensibility profile: S

Reference: PMC11899342, “Novel Triazeneindole Antibiotics: Synthesis and Hit-to-Lead Optimization” (International Journal of Molecular Sciences, 2025)
